From ChEMBL document CHEMBL4837239, “Identification of Thieno[3,2-d]pyrimidine Derivatives as Dual Inhibitors of Focal Adhesion Kinase and FMS-like Tyrosine Kinase 3” (J Med Chem, 2021) come the findings set out here.

pIC50: −log10 of the molar value. The source made the active and inactive calls. The rule behind the calls is not given here. Some results are limits rather than exact numbers.

One series has as its target CYP3A4 (Homo sapiens, UniProt P08684). The experiment in a line: Inhibition of CYP3A4 (unknown origin) at 10 uM relative to control. The class given is ADME.
Series [1] in a line: Oral bioavailability in mouse at 10 mg/kg. The class given is ADME, organism-based. Conditions: in vivo.
Series [2] in a line: Oral bioavailability in rat at 5 mg/kg. In kind it is ADME, organism-based. Conditions: in vivo.
Series [3] in a line: Inhibition of FLT3 D835Y (unknown origin). Also noted: species or system Homo sapiens.
Series [4] has as its target T1, Casein kinase II subunit alpha (Homo sapiens, UniProt P68400). The experiment in a line: Inhibition of CK2alpha1 (unknown origin).
Target sequence in this assay (P68400 whole entry): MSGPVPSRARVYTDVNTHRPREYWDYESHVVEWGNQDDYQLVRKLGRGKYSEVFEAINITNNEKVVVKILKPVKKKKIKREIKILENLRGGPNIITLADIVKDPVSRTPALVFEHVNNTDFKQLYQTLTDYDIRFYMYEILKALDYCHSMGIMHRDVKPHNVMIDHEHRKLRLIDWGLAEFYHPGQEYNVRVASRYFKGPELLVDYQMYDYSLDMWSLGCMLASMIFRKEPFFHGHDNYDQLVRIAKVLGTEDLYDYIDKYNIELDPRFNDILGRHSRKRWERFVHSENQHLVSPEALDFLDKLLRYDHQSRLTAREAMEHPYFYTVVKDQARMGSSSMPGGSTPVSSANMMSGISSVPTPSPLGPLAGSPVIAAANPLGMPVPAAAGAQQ
Series [5] has as its target Proto-oncogene tyrosine-protein kinase receptor Ret (Homo sapiens, UniProt P07949). The experiment in a line: Inhibition of RET (unknown origin).
Series [6] addresses T1, Casein kinase II subunit alpha. In words: Inhibition of CK2alpha1 (unknown origin) at 0.1 uM.
Target sequence in this assay (P68400 whole entry, looked up): as the sequence (P68400 whole entry) above
Series [7] concerns the target Tyrosine-protein kinase Lck (Homo sapiens, UniProt P06239). In words: Inhibition of Lck (unknown origin) at 0.1 uM.
For series [8], the target named is T2, Focal adhesion kinase 1 (Homo sapiens, UniProt Q05397). In words: Inhibition of FAK autophosphorylation at Y576 in human HCT-116 cells at 5 uM incubated for 24 hrs by Western blot analysis. The class given is cell-based.
T2 sequence (Q05397 2-1052 limits assumed): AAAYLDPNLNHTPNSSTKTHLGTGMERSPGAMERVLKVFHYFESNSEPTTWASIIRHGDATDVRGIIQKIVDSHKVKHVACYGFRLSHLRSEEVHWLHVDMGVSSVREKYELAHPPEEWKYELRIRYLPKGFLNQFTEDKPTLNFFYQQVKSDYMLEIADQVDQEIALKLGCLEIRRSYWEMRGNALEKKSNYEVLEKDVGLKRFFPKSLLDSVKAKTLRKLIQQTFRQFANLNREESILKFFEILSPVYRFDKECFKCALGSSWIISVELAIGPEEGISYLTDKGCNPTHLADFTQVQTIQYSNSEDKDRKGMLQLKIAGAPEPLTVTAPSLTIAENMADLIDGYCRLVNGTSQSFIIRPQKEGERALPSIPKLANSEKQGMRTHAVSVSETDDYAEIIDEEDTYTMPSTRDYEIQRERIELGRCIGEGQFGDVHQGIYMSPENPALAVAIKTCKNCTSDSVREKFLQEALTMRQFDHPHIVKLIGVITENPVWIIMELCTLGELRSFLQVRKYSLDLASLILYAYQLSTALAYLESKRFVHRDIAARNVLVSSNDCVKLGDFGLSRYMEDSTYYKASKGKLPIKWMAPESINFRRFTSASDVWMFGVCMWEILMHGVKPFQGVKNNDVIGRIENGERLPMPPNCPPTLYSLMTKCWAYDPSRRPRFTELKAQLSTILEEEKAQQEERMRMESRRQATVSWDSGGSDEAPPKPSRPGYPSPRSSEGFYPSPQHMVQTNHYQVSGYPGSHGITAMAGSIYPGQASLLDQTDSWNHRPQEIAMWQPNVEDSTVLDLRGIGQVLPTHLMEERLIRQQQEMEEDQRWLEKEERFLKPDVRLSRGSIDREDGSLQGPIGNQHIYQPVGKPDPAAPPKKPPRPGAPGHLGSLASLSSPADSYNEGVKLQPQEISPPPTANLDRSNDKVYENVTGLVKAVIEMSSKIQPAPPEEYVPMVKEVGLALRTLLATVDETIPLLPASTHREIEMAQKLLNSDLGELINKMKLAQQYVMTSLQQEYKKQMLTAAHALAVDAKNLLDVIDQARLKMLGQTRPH
In series [9] the target is T2, Focal adhesion kinase 1. The experiment in a line: Inhibition of FAK autophosphorylation at Y576 in human MDA-MB-231 cells at 5 uM incubated for 24 hrs by Western blot analysis. The class given is cell-based. For orientation: Immunoblotting shows a protein as a band on a membrane.
Series [10] addresses T2, Focal adhesion kinase 1. The experiment in a line: Inhibition of FAK in human MDA-MB-231 cells assessed as inhibition of Pyk2 phosphorylation at 0.5 to 5 uM incubated for 24 hrs by Western blot analysis. The class given is cell-based. The following applies: dose 0.5-5 µM.
Series [11] concerns the target T3, Mitogen-activated protein kinase; ERK1/ERK2 (Homo sapiens) (UniProt P27361+P28482). The experiment in a line: Inhibition of ERK1/2 autophosphorylation in human HCT-116 cells at 0.5 to 5 uM incubated for 24 hrs by Western blot analysis. In kind it is cell-based. The following applies: dose 0.5-5 µM.
The target in series [12] is T3, Mitogen-activated protein kinase; ERK1/ERK2 (Homo sapiens). The experiment in a line: Inhibition of ERK1/2 autophosphorylation in human MDA-MB-231 cells at 0.5 to 5 uM incubated for 24 hrs by Western blot analysis. In kind it is cell-based. Conditions: dose 0.5-5 µM.
The test system of another series is MDA-MB-231. In words: Induction of morphological changes in human MDA-MB-231 cells at 10 uM measured within 2 hrs by fluorescence analysis. The class given is functional, cell-based. The following applies: time hrs <=2.
Series [13] is described as follows: Toxicity in NSG orthotopic mouse xenografted with human MDA-MB-231 cells assessed as change in body weight at 40 to 70 mg/kg, po once daily measured for 2 weeks. The class given is organism-based. Conditions: in vivo, 336 h, dose 40-70 mg/kg.
The subject of a further series is MV4-11. The experiment in a line: In vivo antitumor activity against human MV4-11 cells xenografted in mouse assessed as tumor growth inhibition at 50 mg/kg, po. The class given is functional. Conditions: MV4-11, po.

T3 sequence (P27361 whole entry, looked up): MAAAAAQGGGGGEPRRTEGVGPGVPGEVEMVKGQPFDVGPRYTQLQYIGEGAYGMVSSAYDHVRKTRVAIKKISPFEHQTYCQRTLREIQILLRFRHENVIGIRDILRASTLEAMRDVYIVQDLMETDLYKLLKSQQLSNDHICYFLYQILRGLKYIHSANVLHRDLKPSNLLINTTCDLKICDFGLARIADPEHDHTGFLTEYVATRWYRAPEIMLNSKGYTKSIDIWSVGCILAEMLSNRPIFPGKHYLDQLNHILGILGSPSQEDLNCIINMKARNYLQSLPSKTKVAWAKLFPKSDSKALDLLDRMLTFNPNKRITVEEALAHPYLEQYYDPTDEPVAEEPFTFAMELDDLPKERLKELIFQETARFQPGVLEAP
T3 sequence (P28482 whole entry, looked up): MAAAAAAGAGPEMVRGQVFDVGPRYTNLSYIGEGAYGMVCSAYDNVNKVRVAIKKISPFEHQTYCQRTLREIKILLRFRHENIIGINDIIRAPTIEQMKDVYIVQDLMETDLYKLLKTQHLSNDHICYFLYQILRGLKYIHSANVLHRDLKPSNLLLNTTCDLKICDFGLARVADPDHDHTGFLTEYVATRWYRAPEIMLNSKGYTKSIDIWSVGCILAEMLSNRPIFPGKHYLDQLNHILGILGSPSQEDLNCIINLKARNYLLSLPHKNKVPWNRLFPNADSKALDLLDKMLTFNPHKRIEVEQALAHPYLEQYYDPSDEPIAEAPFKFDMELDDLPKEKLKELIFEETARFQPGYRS
Sequence of Tyrosine-protein kinase Lck (P06239 2-509 limits assumed): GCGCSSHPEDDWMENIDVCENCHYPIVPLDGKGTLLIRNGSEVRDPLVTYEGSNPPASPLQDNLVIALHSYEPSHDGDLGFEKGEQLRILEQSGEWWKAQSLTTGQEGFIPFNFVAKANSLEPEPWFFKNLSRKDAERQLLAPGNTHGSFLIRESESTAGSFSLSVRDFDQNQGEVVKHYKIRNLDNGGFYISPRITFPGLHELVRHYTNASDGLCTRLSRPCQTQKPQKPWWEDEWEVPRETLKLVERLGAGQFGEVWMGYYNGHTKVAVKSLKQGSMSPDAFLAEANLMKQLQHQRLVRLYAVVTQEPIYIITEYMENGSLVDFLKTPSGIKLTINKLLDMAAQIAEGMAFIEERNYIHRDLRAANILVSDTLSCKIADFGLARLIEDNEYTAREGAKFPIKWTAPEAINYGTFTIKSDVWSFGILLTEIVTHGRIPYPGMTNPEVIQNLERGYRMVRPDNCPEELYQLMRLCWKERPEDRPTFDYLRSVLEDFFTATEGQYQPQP
Sequence of CYP3A4 (P08684 whole entry): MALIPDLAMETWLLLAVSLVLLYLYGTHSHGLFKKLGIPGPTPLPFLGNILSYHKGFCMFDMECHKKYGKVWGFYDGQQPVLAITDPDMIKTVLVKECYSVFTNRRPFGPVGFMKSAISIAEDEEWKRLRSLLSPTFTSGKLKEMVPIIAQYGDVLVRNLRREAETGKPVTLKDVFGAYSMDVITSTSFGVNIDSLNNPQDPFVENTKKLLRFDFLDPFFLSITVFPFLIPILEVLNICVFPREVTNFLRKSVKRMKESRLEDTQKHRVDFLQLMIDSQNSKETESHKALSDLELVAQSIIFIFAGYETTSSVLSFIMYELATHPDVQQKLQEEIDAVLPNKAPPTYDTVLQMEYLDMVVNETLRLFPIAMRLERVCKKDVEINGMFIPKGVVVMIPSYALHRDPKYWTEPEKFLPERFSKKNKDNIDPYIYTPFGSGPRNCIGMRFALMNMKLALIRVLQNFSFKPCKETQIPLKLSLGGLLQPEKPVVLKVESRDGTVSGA
Sequence of Proto-oncogene tyrosine-protein kinase receptor Ret (P07949 whole entry): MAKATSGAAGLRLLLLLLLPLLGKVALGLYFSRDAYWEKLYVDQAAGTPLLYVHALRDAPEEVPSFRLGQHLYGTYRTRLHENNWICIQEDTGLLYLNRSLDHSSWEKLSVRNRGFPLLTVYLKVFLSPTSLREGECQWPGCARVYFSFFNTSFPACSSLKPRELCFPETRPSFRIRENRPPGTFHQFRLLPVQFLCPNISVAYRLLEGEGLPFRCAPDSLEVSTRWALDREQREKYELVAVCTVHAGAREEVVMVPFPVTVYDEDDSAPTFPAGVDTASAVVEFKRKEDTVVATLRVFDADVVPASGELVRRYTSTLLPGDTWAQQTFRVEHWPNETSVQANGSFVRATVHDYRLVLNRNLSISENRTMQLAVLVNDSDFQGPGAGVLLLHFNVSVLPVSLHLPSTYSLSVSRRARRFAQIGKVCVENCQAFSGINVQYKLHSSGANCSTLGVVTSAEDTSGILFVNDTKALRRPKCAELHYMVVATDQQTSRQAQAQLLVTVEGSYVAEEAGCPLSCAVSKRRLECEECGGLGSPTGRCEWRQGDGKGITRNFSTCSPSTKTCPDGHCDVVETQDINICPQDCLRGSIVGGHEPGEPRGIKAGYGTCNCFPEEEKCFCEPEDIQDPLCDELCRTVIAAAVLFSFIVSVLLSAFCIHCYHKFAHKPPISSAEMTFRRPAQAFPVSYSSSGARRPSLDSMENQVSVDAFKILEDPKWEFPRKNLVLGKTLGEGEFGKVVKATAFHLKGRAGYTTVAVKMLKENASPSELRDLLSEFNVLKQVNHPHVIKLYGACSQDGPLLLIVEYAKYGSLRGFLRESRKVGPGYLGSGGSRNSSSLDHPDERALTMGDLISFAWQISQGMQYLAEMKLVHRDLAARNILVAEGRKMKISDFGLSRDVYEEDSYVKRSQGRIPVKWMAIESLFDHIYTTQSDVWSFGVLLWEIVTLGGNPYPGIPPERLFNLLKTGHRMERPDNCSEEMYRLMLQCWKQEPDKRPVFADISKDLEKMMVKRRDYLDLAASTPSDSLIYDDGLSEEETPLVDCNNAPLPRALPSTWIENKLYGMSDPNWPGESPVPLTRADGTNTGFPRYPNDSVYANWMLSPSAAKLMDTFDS

At CYP3A4, `CCN1CCN(c2ccc(Nc3ncc4scc(-c5cccc(NS(C)(=O)=O)c5)c4n3)cc2)CC1` showed an inhibition at 10 µM of 71.9%. Besides, the figures for the bioavailability in series [1] and in series [2] were 15.8% and 37.1%, respectively. Further, the pIC50 was over 9.30 in series [3], 7.86 in [4] and 8.54 in series [5]. The figures for the inhibition in series [6] and in series [7] were 95.5% and 93.9%, respectively. The inhibition result at Focal adhesion kinase 1 [8], on Focal adhesion kinase 1 [9] and at Focal adhesion kinase 1 [10] was “Active” throughout. The inhibition entry in series [11] and in [12] was “inactive” in each case. Besides, the result in the series with MDA-MB-231 was Active. Moreover, the Activity result in series [13] is “Non-Toxic”. The inhibition in vivo at 50 mg/kg with MV4-11 worked out at 96%.

The term inhibition denotes the change of the read-out against control, counted positive when it falls. For orientation: bioavailability means the share of a dose that reaches the circulation, judged against a reference dose that is usually intravenous. Low readings indicate poor availability, high ones good availability. The term pIC50 denotes −log10 of the IC50, conventionally taken in molar units. High values mean a low IC50, low ones a high IC50. As a reminder, the inhibition in vivo is the drop in the measured response relative to a control, in per cent.
